The values that follow come from patent US12329137B2, “Method of preparing mouse model of herpes” (AJOU UNIVERSITY INDUSTRY-ACADEMIC COOPERATION FOUNDATION, priority 2019, dated 2025).

Common to all, as to format: in vivo, ICR mice
The test system of test [1] is CD8+ immune-related cells. The test can be described thus: Flow cytometry frequency of CD8+ cells in peripheral blood leukocytes. As to conditions: HSV-1 inoculated mice. The method, then: (§1) The ear inner conch of a large number of 5-week-old ICR mice bred and reared in SPF (specific pathogen free) conditions was injured by being scratched with an injection needle at a strength sufficient to prevent blood from bleeding out, then the injured site was first inoculated with 20 μL of HSV-1 (herpes simplex virus type 1, F strain) solution (1×10^6 pfu/mL), and the mice were reared for 10 days. Next, the same injured site was secondarily inoculated with the same dose of HSV-1. One time a day for 5 days from the day after the first inoculation had been performed and one time a day for 5 days from the day after the second inoculation had been performed, hydrocortisone was intraperitoneally injected into each mouse at 50 μg/day to 500 μg/day. Thereafter, the faces of the mice were observed, mice having blisters formed around the lips were selected, and these were used as mouse models of herpes (FIG. 1).
(§2) Each mouse model of herpes was prepared by way of the method of Example 1 except that hydrocortisone was administered at about 50 μg/day, 150 μg/day, or 500 μg/day. Thereafter, peripheral blood was collected from each of the mouse models of herpes, peripheral blood leukocytes was isolated and obtained from the collected blood, and the frequencies of immune-related cells (CD4+, CD8+, and DX5+) contained in the peripheral blood leukocytes were measured and comparatively analyzed via flow cytometry (Tables 1 and 2). In this case, mouse models of herpes prepared without administration of hydrocortisone were used as a control group.

Test [2] concerns herpes simplex virus type 1 (HSV-1). The test can be described thus: Prevalence rate of herpes in mice given HSV-1 with hydrocortisone. The procedure:
as §1

Test [3] deals with DX5+ immune-related cells. Briefly: Flow cytometry frequency of DX5+ cells in peripheral blood leukocytes. As to conditions: HSV-1 inoculated mice. The procedure: as §1, §2
The subject of test [4] is CD4+ immune-related cells. The test can be described thus: Flow cytometry frequency of CD4+ cells in peripheral blood leukocytes. As to conditions: HSV-1 inoculated mice. The procedure:
as §1, §2

Where [5] appears, read: hydrocortisone 50 μg/day intraperitoneal.
Setting [6] is: hydrocortisone 150 μg/day intraperitoneal.
Setting [7] is: hydrocortisone 500 μg/day intraperitoneal.

With `C[C@]12CCC(=O)C=C1CC[C@@H]1[C@@H]2[C@@H](O)C[C@@]2(C)[C@H]1CC[C@]2(O)C(=O)CO` [Hydrocortisone, hydrocortisone], the “expression frequency of CD8+ cells” value in test [1] (setting [5]) is recorded as 6.44 ± 2.6%; in test [1] (setting [6]) it was 4.78 ± 1.7%; in test [1] (setting [7]), 4.2 ± 1.7%. The “Prevalence rate of herpes (symptomatic mice/total mice)” value in test [2] (HSV-1 + hydrocortisone at 150 μg/day in combination) is given as 14.7% (14/95). For the same molecule, the “prevalence rate of herpes relative to mice administered with HSV-1 singly” value in test [2] (HSV-1 + hydrocortisone at 150 μg/day in combination vs HSV-1 singly) was “about 2.5 times”. Also, the entries for the “expression frequency of DX5+ cells” value in test [3] (setting [5]), in test [3] (setting [6]) and in test [3] (setting [7]) were 4.4 ± 2.4%, 2.89 ± 1.9% and 2.5 ± 1.9%, respectively. Besides, the “expression frequency of CD4+ cells” value in test [4] (setting [5]) amounted to 15.8 ± 8.8%; in test [4] (setting [6]) it was 12.4 ± 7.8%; in test [4] (setting [7]), 12.3 ± 4.7%.
